Legend:
[1] = test system: Eschericia coli (E. Coli) strain ATCC25922; assay: standard microdilution assay, minimum inhibitory concentration (MIC); assay type: cell-based; conditions: Escherichia coli
Outline: (§1)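 MICs were determined by broth microdilution per CLSI protocols (M7-A8, M100-S20), with reference strains run for quality control. Tested strains were E. coli ATCC25922 and S. aureus 11540. Activity was scored +/− against a 16 µg/mL cutoff.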

[2] = test system: Staphylococcus aureus (S. aureus) 11540 strain; assay: as above; assay type: cell-based
Outline: as §1

SMILES | MIC ([1]; Table 2, strain ATCC25922) | MIC ([2]; Table 2, 11540 strain) | MIC ([1]; ATCC25922, Table 2a) | MIC ([2]; Table 2a)
N=C(N)NCC[C@H](CNC(=N)N)OCc1ccc(-n2cc3cc(C4CCNC4)[nH]c3nc2=O)cc1 (stereo partly shown) [Compound 129] | ≤ 16 mg/L | ≤ 16 mg/L | – | –
O=c1nc2[nH]c(C3CCNC3)cc2cn1-c1ccc([C@@H]2CCC[C@@H](CCc3ncc[nH]3)N2)cc1 (stereo partly shown) [Compound 130] | ≤ 16 mg/L | > 16 mg/L | – | –
C[C@@H](CCNC(=N)N)OCc1ccc(-n2cc3cc(C4CCNC4)[nH]c3nc2=O)cc1 (stereo partly shown) [Compound 131] | > 16 mg/L | > 16 mg/L | – | –
N=C(N)NCC[C@H](CF)OCc1ccc(-n2cc3cc(C4CCNC4)[nH]c3nc2=O)cc1 (stereo partly shown) [Compound 136] | > 16 mg/L | > 16 mg/L | – | –
C[C@H](N)CCCc1cc(Cl)c(F)c(-c2cc3cn(-c4ccc([C@H]5CC(NC6=NCCN6)C[C@H](CCNC6=NCCN6)O5)cc4)c(=O)nc3[nH]2)c1 (stereo partly shown) [Compound 138] | ≤ 16 mg/L | ≤ 16 mg/L | – | –
N=C(N)NCC[C@H]1CN(c2ccc(-n3cc4cc(CCNC5CCNCC5)[nH]c4nc3=O)cc2)CCO1 [Compound 144] | ≤ 16 mg/L | > 16 mg/L | – | –
N=C(N)NCC[C@H]1CN(c2ccc(-n3cc4cc(C5CCNC5)[nH]c4nc3=O)cc2)CCO1 (stereo partly shown) [Compound 145] | > 16 mg/L | > 16 mg/L | – | –
N=C(N)NCC[C@@H]1CN(c2ccc(-n3cc4cc(CCNC5CCNCC5)[nH]c4nc3=O)cc2)CCO1 [Compound 146] | > 16 mg/L | > 16 mg/L | – | –
N=C(N)NCC[C@@H]1CN(c2ccc(-n3cc4cc(C5CCNC5)[nH]c4nc3=O)cc2)CCO1 (stereo partly shown) [Compound 147] | > 16 mg/L | > 16 mg/L | – | –
N=C(CF)NCC[C@@H]1CCC[C@@H](c2ccc(-n3cc4cc(-c5cc(CCC[C@@H](N)CO)cc(Cl)c5F)[nH]c4nc3=O)cc2)N1 [Compound 150] | ≤ 16 mg/L | ≤ 16 mg/L | – | –
C=C[C@H](N)CCCc1cc(Cl)c(F)c(-c2cc3cn(-c4ccc(CO[C@H](CCNC(=N)N)CNC(=N)N)cc4)c(=O)nc3[nH]2)c1 [Compound 160] | – | – | ≤ 16 mg/L | ≤ 16 mg/L
COC[C@H](N)CCCc1cc(OC(F)(F)F)c(F)c(-c2cc3cn(-c4ccc(CO[C@H](CCNC(C)=N)CNC(C)=N)cc4)c(=O)nc3[nH]2)c1 [Compound 161] | – | – | ≤ 16 mg/L | ≤ 16 mg/L
N=C(N)NCC[C@H](CNC(=N)N)OCc1ccc(-n2cc3cc(-c4cc(CCC[C@@H](N)CF)cc(Cl)c4F)[nH]c3nc2=O)cc1 [Compound 162] | – | – | ≤ 16 mg/L | ≤ 16 mg/L
N=C(N)NCC[C@H](CNC(=N)N)OCc1ccc(-n2cc3cc(-c4cc(CCC[C@@H](N)CO)cc(Cl)c4F)[nH]c3nc2=O)cc1 [Compound 163] | – | – | ≤ 16 mg/L | ≤ 16 mg/L
COC[C@H](N)CCCc1cc(OC(F)(F)F)c(F)c(-c2cc3cn(-c4ccc(CO[C@H](CCNC(=N)N)CNC(=N)N)cc4)c(=O)nc3[nH]2)c1 [Compound 165] | – | – | ≤ 16 mg/L | ≤ 16 mg/L
CC(C)(N)CCCc1cc(Cl)c(F)c(-c2cc3cn(-c4ccc(CO[C@H](CCNC(=N)N)CNC(=N)N)cc4)c(=O)nc3[nH]2)c1 [Compound 166] | – | – | ≤ 16 mg/L | ≤ 16 mg/L
C[C@H](N)CCCc1cc(Cl)c(F)c(-c2cc3cn(-c4ccc(CO[C@H](CCNS(C)(=O)=O)CNC(=N)N)cc4)c(=O)nc3[nH]2)c1 [Compound 167] | – | – | ≤ 16 mg/L | ≤ 16 mg/L
CC(=N)NCC[C@H](CNC(C)=N)OCc1ccc(-n2cc3cc(-c4cc(CCC[C@H](C)N)cc(Cl)c4F)[nH]c3nc2=O)cc1 [Compound 169] | – | – | ≤ 16 mg/L | ≤ 16 mg/L
C[C@H](N)CCCc1cc(Cl)c(F)c(-c2cc3cn(-c4ccc(CO[C@H](CCNC(N)=O)CNC(=N)N)cc4)c(=O)nc3[nH]2)c1 [Compound 170] | – | – | ≤ 16 mg/L | ≤ 16 mg/L
CC(=N)NCC[C@H](CNC(=N)N)OCc1ccc(-n2cc3cc(-c4cc(CCC[C@H](C)N)cc(Cl)c4F)[nH]c3nc2=O)cc1 [Compound 171] | – | – | ≤ 16 mg/L | ≤ 16 mg/L
CC(=N)NCC[C@@H](CNC(=N)N)OCc1ccc(-n2cc3cc(-c4cc(CCC[C@H](C)N)cc(Cl)c4F)[nH]c3nc2=O)cc1 [Compound 172] | – | – | ≤ 16 mg/L | ≤ 16 mg/L
CC(=N)NCC[C@@H](CNC(C)=N)OCc1ccc(-n2cc3cc(-c4cc(CCC[C@H](C)N)cc(Cl)c4F)[nH]c3nc2=O)cc1 [Compound 173] | – | – | ≤ 16 mg/L | ≤ 16 mg/L
CC(=N)NCC[C@H](CN)OCc1ccc(-n2cc3cc(-c4cc(CCC[C@H](C)N)cc(Cl)c4F)[nH]c3nc2=O)cc1 [Compound 176] | – | – | ≤ 16 mg/L | ≤ 16 mg/L
C[C@H](N)CCCc1cc(Cl)c(F)c(-c2cc3cn(-c4ccc(CO[C@H](CCN5CCNC5=O)CNC(=N)N)cc4)c(=O)nc3[nH]2)c1 [Compound 177] | – | – | ≤ 16 mg/L | ≤ 16 mg/L
CC(=N)NCC[C@@H](CN)OCc1ccc(-n2cc3cc(-c4cc(CCC[C@H](C)N)cc(Cl)c4F)[nH]c3nc2=O)cc1 [Compound 178] | – | – | ≤ 16 mg/L | ≤ 16 mg/L

Further lines, results first:

MIC ([1]; Table 2, strain ATCC25922) | MIC ([2]; Table 2, 11540 strain) | MIC ([1]; ATCC25922, Table 2a) | MIC ([2]; Table 2a) | SMILES
≤ 16 mg/L | ≤ 16 mg/L | – | – | C=C[C@@H](CCNC(=N)N)OCc1ccc(-n2cc3cc(-c4cc(CCC[C@H](C)N)cc(Cl)c4F)[nH]c3nc2=O)cc1 [Compound 132]
≤ 16 mg/L | ≤ 16 mg/L | – | – | C[C@H](N)CCCc1cc(Cl)c(F)c(-c2cc3cn(-c4ccc(N5CCO[C@H](CCNC(=N)N)C5)cc4)c(=O)nc3[nH]2)c1 [Compound 133]
≤ 16 mg/L | ≤ 16 mg/L | – | – | C[C@H](N)CCCc1cc(Cl)c(F)c(-c2cc3cn(-c4ccc(N5CCO[C@@H](CCNC(=N)N)C5)cc4)c(=O)nc3[nH]2)c1 [Compound 134]
≤ 16 mg/L | ≤ 16 mg/L | – | – | C[C@H](N)CCCc1cc(Cl)c(F)c(-c2cc3cn(-c4ccc(CO[C@@H](CF)CCNC(=N)N)cc4)c(=O)nc3[nH]2)c1 [Compound 135]
≤ 16 mg/L | ≤ 16 mg/L | – | – | CC(=N)NCC[C@H]1CC(NC(C)=N)C[C@H](c2ccc(-n3cc4cc(-c5cc(CCC[C@H](C)N)cc(Cl)c5F)[nH]c4nc3=O)cc2)O1 (stereo partly shown) [Compound 137]
≤ 16 mg/L | ≤ 16 mg/L | – | – | C=C[C@@H](CCNC(=N)N)NCc1ccc(-n2cc3cc(-c4cc([C@H]5CC[C@H](CN)O5)cc(Cl)c4F)[nH]c3nc2=O)cc1 [Compound 139]
≤ 16 mg/L | ≤ 16 mg/L | – | – | C=C[C@@H](CCNC(=N)N)NCc1ccc(-n2cc3cc(-c4cc([C@H]5CC[C@@H](CN)O5)cc(Cl)c4F)[nH]c3nc2=O)cc1 [Compound 140]
≤ 16 mg/L | ≤ 16 mg/L | – | – | C=C[C@@H](CCNC(=N)N)NCc1ccc(-n2cc3cc(-c4cc([C@@H]5CC[C@@H](CN)O5)cc(Cl)c4F)[nH]c3nc2=O)cc1 [Compound 141]
≤ 16 mg/L | ≤ 16 mg/L | – | – | C=C[C@@H](CCNC(=N)N)NCc1ccc(-n2cc3cc(-c4cc([C@@H]5CC[C@H](CN)O5)cc(Cl)c4F)[nH]c3nc2=O)cc1 [Compound 142]
≤ 16 mg/L | ≤ 16 mg/L | – | – | C[C@H](N)CCCc1cc(Cl)c(F)c(-c2cc3cn(-c4ccc([C@H]5CC(N)C[C@H](CCNC6=NCCN6)O5)cc4)c(=O)nc3[nH]2)c1 (stereo partly shown) [Compound 143]
≤ 16 mg/L | ≤ 16 mg/L | – | – | C[C@H](NCCCNC(=N)N)c1ccc(-n2cc3cc(-c4cc([C@@H]5CC[C@@H](CN)O5)cc(Cl)c4F)[nH]c3nc2=O)cc1 [Compound 148]
≤ 16 mg/L | ≤ 16 mg/L | – | – | C[C@H](NCCCNC(=N)N)c1ccc(-n2cc3cc(-c4cc([C@@H]5CC[C@H](CN)O5)cc(Cl)c4F)[nH]c3nc2=O)cc1 [Compound 149]
≤ 16 mg/L | ≤ 16 mg/L | – | – | CC(=N)NCC[C@@H]1CCC[C@@H](c2ccc(-n3cc4cc(-c5cc(CCC[C@@H](N)CO)cc(Cl)c5F)[nH]c4nc3=O)cc2)N1 [Compound 151]
≤ 16 mg/L | ≤ 16 mg/L | – | – | C[C@H](N)CCCC1CC(c2cc3cn(-c4ccc([C@H](C)NCCCNC(=N)N)cc4)c(=O)nc3[nH]2)CCN1 (stereo partly shown) [Compound 152]
– | – | ≤ 16 mg/L | ≤ 16 mg/L | C[C@H](N)CCCc1cc(Cl)c(F)c(-c2cc3cn(-c4ccc(CO[C@H](CCNC(=N)N)CN(C)C)cc4)c(=O)nc3[nH]2)c1 [Compound 159]
– | – | ≤ 16 mg/L | ≤ 16 mg/L | N=C(N)NCC[C@H](CNC(=N)N)OCc1ccc(-n2cc3cc(-c4cc(CCC[C@@H](N)C5CC5)cc(Cl)c4F)[nH]c3nc2=O)cc1 [Compound 164]
– | – | ≤ 16 mg/L | ≤ 16 mg/L | CC(=N)NC[C@@H](CCNC(=N)N)OCc1ccc(-n2cc3cc(-c4cc(CCC[C@H](C)N)cc(Cl)c4F)[nH]c3nc2=O)cc1 [Compound 168]
– | – | ≤ 16 mg/L | ≤ 16 mg/L | C[C@H](N)CCCc1cc(Cl)c(F)c(-c2cc3cn(-c4ccc(CO[C@@H](CCNC(=N)N)CNC(=N)N)cc4)c(=O)nc3[nH]2)c1 [Compound 174]
– | – | ≤ 16 mg/L | ≤ 16 mg/L | CC(=N)NC[C@H](CCNC(=N)N)OCc1ccc(-n2cc3cc(-c4cc(CCC[C@H](C)N)cc(Cl)c4F)[nH]c3nc2=O)cc1 [Compound 175]

— patent US10947237B2, “Antimicrobial compounds and methods of making and using the same” (BIOVERSYS AG, priority 2015, dated 2021)
